Results: patent publication US10307413B2, “Tetrahydro- and dihydro-isoquinoline PRMT5 inhibitors and uses thereof” (Epizyme, Inc., priority 2013, dated 2019)
Like-named read-outs stand apart in the source and are kept apart here.

Experiments:
[1] = system: symmetric di-methyl arginine in Z-138 cells; assay: Z-138 Methylation Assay (In Cell Western for symmetric di-methyl arginine and DNA content); type: cell-based; details: Homo sapiens, read-out: ICW EC50
Excerpt: [formula] [formula] Where top and bottom are the normally allowed to float, but may be fixed at 100 or 0 respectively in a 3-parameter fit. The Hill Coefficient normally allowed to float but may also be fixed at 1 in a 3-parameter fit. Y is the % inhibition and X is the compound concentration.
RPMI/Glutamax medium, penicillin-streptomycin, heat inactivated fetal bovine serum, and D-PBS were purchased from Life Technologies, Grand Island, N.Y., USA. Odyssey blocking buffer, 800CW goat anti-rabbit IgG (H+L) antibody, and Licor Odyssey infrared scanner were purchased from Licor Biosciences, Lincoln, Nebr., USA. Symmetric di-methyl arginine antibody was purchased from EMD Millipore, Billerica, Mass., USA. 16% Paraformaldehyde was purchased from Electron Microscopy Sciences, Hatfield, Pa., USA.
Cell Treatment, in Cell Western (ICW) for Detection of Symmetric Di-Methyl Arginine and DNA Content.
Z-138 cells were seeded in assay medium at a concentration of 50,000 cells per mL to a 384-well cell culture plate with 50 μL per well. Compound (100 nL) from 384 well source plates was added directly to 384 well cell plate. Plates were incubated at 37° C., 5% CO2 for 96 hours. […] Plates were incubated at room temperature for 30 minutes then incubated at 37° C., 5% CO2 for 5 hours. After the incubation, 40 μL per well of 8% paraformaldehyde in PBS (16% paraformaldahyde was diluted to 8% in PBS) was added to each plate and incubated for 30 minutes. […] Next 30 μL per well of Odyssey blocking buffer were added to each plate and incubated 1 hour at room temperature. Blocking buffer was removed and 20 μL per well of primary antibody was added (symmetric di-methyl arginine diluted 1:100 in Odyssey buffer with 0.1% Tween 20 (v/v)) and plates were incubated overnight (16 hours) at 4° C. Plates were washed 5 times with 100 μL per well of wash buffer. Next 20 μL per well of secondary antibody was added (1:200 800CW goat anti-rabbit IgG (H+L) antibody, 1:1000 DRAQ5 (Biostatus limited) in Odyssey buffer with 0.1% Tween 20 (v/v)) and incubated for 1 hour at room temperature. The plates were washed 5 times with 100 μL per well wash buffer then 1 time with 100 μL per well of water. Plates were allowed to dry at room temperature then imaged on the Licor Odyssey machine which measures integrated intensity at 700 nm and 800 nm wavelengths. Both 700 and 800 channels were scanned.
First, the ratio for each well was determined by:
Each plate included fourteen control wells of DMSO only treatment (minimum inhibition) as well as fourteen control wells for maximum inhibition treated with 3 μM of a reference compound (Background wells). The average of the ratio values for each control type was calculated and used to determine the percent inhibition for each test well in the plate. Reference compound was serially diluted three-fold in DMSO for a total of nine test concentrations, beginning at 3 μM. Percent inhibition was determined and IC50 curves were generated using triplicate wells per concentration of compound. Percent Inhibition=100−

Z-138 cell line = assay: Z-138 Proliferation Assay (Cell Titer Glo, 5 days); type: cell-based; details: Homo sapiens, 120 h, Z-138 cells, 5 days, read-out: Proliferation EC50
Excerpt: RPMI/Glutamax medium, penicillin-streptomycin, heat inactivated fetal bovine serum were purchased from Life Technologies, Grand Island, N.Y., USA. V-bottom polypropylene 384-well plates were purchased from Greiner Bio-One, Monroe, N.C., USA. Cell culture 384-well white opaque plates were purchased from Perkin Elmer, Waltham, Mass., USA. Cell-Titer Glo® was purchased from Promega Corporation, Madison, Wis., USA. SpectraMax M5 plate reader was purchased from Molecular Devices LLC, Sunnyvale, Calif., USA.
A compound source plate was prepared by performing triplicate nine-point 3-fold serial dilutions in DMSO, beginning at 10 mM (final top concentration of compound in the assay was 20 μM and the DMSO was 0.2%). A 100 nL aliquot from the compound stock plate was added to its respective well in the cell plate. […] After addition of compounds, assay plates were incubated for 5 days at 37° C., 5% CO2, relative humidity >90%.
Cell viability was measured by quantitation of ATP present in the cell cultures, adding […] of Cell Titer Glo® reagent to the cell plates. Luminescence was read in the SpectraMax M5 microplate reader. The concentration of compound inhibiting cell viability by 50% was determined using a 4-parametric fit of the normalized dose response curves.

Row | SMILES | EC50 [1] [nM] | EC50 ([1]; In Cell Western methylation) [nM] | EC50 (Z-138 cell line) [nM] | EC50 (Z-138 cell line; Cell Titer Glo) [nM]
1 | COc1ccc(C(=O)NCC(O)CN2CCc3ccccc3C2)cc1NC1CCOCC1 (centres unmarked) [Compound 67] | 101 to 1000 | – | 10000 to 50000 | –
2 | CS(=O)(=O)N1CCC(Oc2cccc(C(=O)NCC(O)CN3CCc4ccccc4C3)c2)C1 (centres unmarked) [Compound 162] | < 100 | – | 1000 to 10000 | –
3 | O=C(NC[C@H](O)CN1CCc2ccccc2C1)c1cc(NC2CNC2)ncn1 [Compound 280] | < 100 | – | 101 to 1000 | –
4 | CC(=O)N1CCC(Nc2cccc(C(=O)NCC(O)CN3CCc4ccccc4C3)c2)CC1 (centres unmarked) [Compound 124] | < 100 | – | < 100 | –
5 | O=C(NCC(O)CN1CCc2ccccc2C1)c1ccc(OC2CCN(CC(F)(F)F)CC2)cc1 (centres unmarked) [Compound 109] | < 100 | – | 101 to 1000 | –
6 | CC(C)N1CCC(Nc2ccc(C(=O)NCC(O)CN3CCc4ccccc4C3)cc2)CC1 (centres unmarked) [Compound 140] | < 100 | – | 1000 to 10000 | –
7 | CC(c1cccc(C(=O)NCC(O)CN2CCc3ccccc3C2)c1)N1CCN(C)CC1 (centres unmarked) [Compound 161] | < 100 | – | 1000 to 10000 | –
8 | O=C(NC[C@@H](O)CN1CCc2ccccc2C1)c1cc(NC2COC2)ncn1 [Compound 336] | 101 to 1000 | – | 10000 to 50000 | –
9 | O=C(NC[C@H](O)CN1CCc2ccccc2C1)c1cccc(NC2CCN(CC(F)(F)F)CC2)c1 [Compound 217] | < 100 | – | 101 to 1000 | –
10 | CS(=O)(=O)N1CCC(Nc2cc(C(=O)NC[C@H](O)CN3CCc4ccccc4C3)ncn2)CC1 [Compound 297] | < 100 | – | < 100 | –
11 | COCCN1CCN(Cc2cccc(C(=O)NCC(O)CN3CCc4ccccc4C3)c2)CC1 (centres unmarked) [Compound 114] | 101 to 1000 | – | 10000 to 50000 | –
12 | CS(=O)(=O)N1CCC(Oc2cc(C(=O)NC[C@H](O)CN3CCc4ccccc4C3)ccn2)CC1 [Compound 204] | < 100 | – | 101 to 1000 | –
13 | CC(=O)N1CCC(Oc2ccc(C(=O)NCC(O)CN3CCc4ccccc4C3)cc2)CC1 (centres unmarked) [Compound 107] | < 100 | – | 101 to 1000 | –
14 | CNC(=O)CN1CCN(Cc2cccc(C(=O)NCC(O)CN3CCc4ccccc4C3)c2)CC1 (centres unmarked) [Compound 173] | < 100 | – | 1000 to 10000 | –
15 | CC(=O)N1CCC(Nc2cc(C(=O)NC[C@@H](O)CN3CCc4ccccc4C3)ncn2)CC1 [Compound 687] | – | < 100 | – | 101 to 1000
16 | O=C(NC[C@H](O)CN1CCc2ccccc2C1)c1ccc(OC2CCN(CCO)CC2)cc1 [Compound 321] | < 100 | – | 101 to 1000 | –
17 | CS(=O)(=O)N1CCC(Oc2ccc(C(=O)NCC(O)CN3CCc4ccccc4C3)cc2)C1 (centres unmarked) [Compound 198] | < 100 | – | 101 to 1000 | –
18 | O=C(NCC(O)CN1CCc2ccccc2C1)c1ccc(CN2CCOCC2)cc1 (centres unmarked) [Compound 145] | < 100 | – | 1000 to 10000 | –
19 | O=C(NCC(O)CN1CCc2ccccc2C1)c1ccc(NC2CCOCC2)cc1 (centres unmarked) [Compound 66] | 101 to 1000 | – | 1000 to 10000 | –
20 | CN(C[C@H](O)CN1CCc2ccccc2C1)C(=O)c1cc(NC2CCOCC2)ncn1 [Compound 232] | 101 to 1000 | – | 1000 to 10000 | –
21 | O=C(NCC(O)CN1CCc2ccccc2C1)c1cccc(N2CCS(=O)(=O)CC2)c1 (centres unmarked) [Compound 164] | < 100 | – | 1000 to 10000 | –
22 | O=C(NC[C@H](O)CN1CCc2ccccc2C1)c1cc(OC2CCOCC2)ncn1 [Compound 256] | < 100 | – | 1000 to 10000 | –

The next lines start with results.

Row | EC50 [1] [nM] | EC50 ([1]; In Cell Western methylation) [nM] | SMILES | EC50 (Z-138 cell line) [nM] | EC50 (Z-138 cell line; Cell Titer Glo) [nM]
23 | 101 to 1000 | – | CN(C)C(=O)CNCc1cccc(C(=O)NCC(O)CN2CCc3ccccc3C2)c1 (centres unmarked) [Compound 118] | > 20000 | –
24 | 101 to 1000 | – | O=C(NC[C@@H](O)CN1CCc2ccccc2C1)c1cccc(NC2CCOCC2)c1 [Compound 43] | 1000 to 10000 | –
25 | < 100 | – | O=C(NC[C@H](O)CN1CCc2ccccc2C1)c1ccnc(NCC2CCCCN2)c1 (some centres unmarked) [Compound 237] | 1000 to 10000 | –
26 | 101 to 1000 | – | O=C(NCC(O)CN1CCc2ccccc2C1)c1cccc(NC2CCOCC2O)c1 (centres unmarked) [Compound 98] | 1000 to 10000 | –
27 | < 100 | – | C[C@@H]1COCCC1Nc1cccc(C(=O)NC[C@H](O)CN2CCc3ccccc3C2)c1 (some centres unmarked) [Compound 212] | 101 to 1000 | –
28 | < 100 | – | CC(=O)N1CCC(Nc2cc(C(=O)NC[C@H](O)CN3CCc4ccccc4C3)ccn2)C1 (some centres unmarked) [Compound 228] | 101 to 1000 | –
29 | 101 to 1000 | – | O=C(NC[C@@H](O)CN1CCc2ccccc2C1)c1cccc(NC2CCOC2)c1 (some centres unmarked) [Compound 81] | 1000 to 10000 | –
30 | 101 to 1000 | – | O=C(NCC(O)CN1CCc2ccccc2C1)c1cccc(OC2CCNC2)c1 (centres unmarked) [Compound 119] | 1000 to 10000 | –
31 | 101 to 1000 | – | O=C(NCC(O)CN1CCc2ccccc2C1)c1cccc(NC2CCCOC2)c1 (centres unmarked) [Compound 60] | 1000 to 10000 | –
32 | < 100 | – | C[C@H]1CC(Nc2cccc(C(=O)NC[C@H](O)CN3CCc4ccccc4C3)c2)CCO1 (some centres unmarked) [Compound 167] | 101 to 1000 | –
33 | 101 to 1000 | – | O=C(NCC(O)CN1CCc2ccccc2C1)c1cccc(-n2cncn2)c1 (centres unmarked) [Compound 130] | 10000 to 50000 | –
34 | 101 to 1000 | – | O=C(NC[C@H](O)CN1CCc2ccccc2C1)c1c[nH]c2ccccc12 [Compound 240] | > 20000 | –
35 | < 100 | – | CNCCNc1cc(C(=O)NC[C@H](O)CN2CCc3ccccc3C2)ccn1 [Compound 314] | 10000 to 50000 | –
36 | 101 to 1000 | – | Cn1nccc1C(=O)NCC(O)CN1CCc2ccccc2C1 (centres unmarked) [Compound 150] | > 20000 | –
37 | < 100 | – | CS(=O)(=O)N1CCC(Nc2cc(C(=O)NC[C@H](O)CN3CCc4ccccc4C3)ccn2)C1 (some centres unmarked) [Compound 227] | 101 to 1000 | –
38 | < 100 | – | O=C(NC[C@H](O)CN1CCc2ccccc2C1)c1cccc(NC2CCOC2)c1 (some centres unmarked) [Compound 80] | 101 to 1000 | –
39 | < 100 | – | O=C(NC[C@H](O)CN1CCc2ccccc2C1)c1ccnc(NCc2cccnc2)c1 [Compound 190] | 101 to 1000 | –
40 | 101 to 1000 | – | O=C(NC[C@H](O)CN1CCc2ccccc2C1)c1cncc(NC2COC2)c1 [Compound 299] | 10000 to 50000 | –
41 | < 100 | – | O=C(NCC(O)CN1CCc2ccccc2C1)c1ccc(-n2cncn2)cc1 (centres unmarked) [Compound 110] | 1000 to 10000 | –
42 | < 100 | – | CN(C)CCCOc1ccc(C(=O)NCC(O)CN2CCc3ccccc3C2)cc1 (centres unmarked) [Compound 178] | 1000 to 10000 | –
43 | < 100 | – | COc1cc(C(=O)NC[C@H](O)CN2CCc3ccccc3C2)cc(NC2CCC2)n1 [Compound 332] | < 100 | –
44 | < 100 | – | O=C(NC[C@H](O)CN1CCc2ccccc2C1)c1ccc2ncccc2c1 [Compound 220] | 101 to 1000 | –
45 | 101 to 1000 | – | O=C(NC[C@H](O)CN1CCc2ccccc2C1)c1ccnc(NC2CCNCC2)c1 [Compound 200] | 10000 to 50000 | –
46 | < 100 | – | O=C(NC[C@H](O)CN1CCc2ccccc2C1)c1nccc2ccccc12 [Compound 272] | 1000 to 10000 | –
47 | 101 to 1000 | – | NCCNc1cc(C(=O)NC[C@H](O)CN2CCc3ccccc3C2)ccn1 [Compound 320] | 1000 to 10000 | –
48 | < 100 | – | O=C(NC[C@H](O)CN1CCc2ccccc2C1)c1cccc(-c2ccccn2)c1 [Compound 20] | 101 to 1000 | –
49 | < 100 | – | CC(=O)N1CC(Nc2cc(C(=O)NC[C@H](O)CN3CCc4ccccc4C3)ccn2)C1 [Compound 279] | < 100 | –
